Laboratory results reported in patent US20250367283A1, “MEVALONATE PATHWAY INHIBITOR AS HIGHLY-EFFICIENT VACCINE ADJUVANT” (Tsinghua University, priority 2015, published 2025).
Where two headings read alike, the source gives them in different places.

Legend:
[1] = system: anti-OVA IgM and IgG antibodies; test: OVA evaluation system: adjuvant activity in antibody titer in mice; type: in vivo; details: GGPPS inhibitors 100 μg with OVA, right sole, Day 7 and Day 14
Description: OVA evaluation system was used to determine adjuvant activity in antibody titer.
Mice of C57B/6 strain were used. The mice in the experimental group were injected with the obtained mixture of each of the statins and OVA antigen through soles injection, with 20 μl for each mouse. The mice in the control group were injected with a 1:1 mixture of PBS or DMSO (10 μl) and 10 μl OVA antigen (PBS or DMSO is 10 μl, respectively, and the antigen is 10 μl) through soles injection, with 20 μl for each mouse. On Day 7 and Day 14 after immunization, blood was taken from the mice's orbits, with 100 μl was taken from each mouse. The obtained blood was left at 4° C. overnight, and centrifuged at 6000 rpm for 8 min. The supernatant serum was removed and the titers of anti-OVA IgM and IgG antibodies in the serum were determined.
Test of the OVA antibody titer: The OVA protein was diluted to a concentration of 2 μg/ml with a carbonate solution of pH 9.6, coated in a 96-well ELISA plate at 50 μl per well, and left at 4° C. overnight. The ELISA plate was washed five times with PBS containing 0.05% Tween 20, blocked with 1% BSA solution at 200 μl per well, and incubated at room temperature for 2 h. The ELISA plate was washed five times with PBST (Phosphate Buffered Saline with Tween), a 2-fold serial dilution of the mouse serum after immunized with OVA was added at 50 μl per well and incubated at room temperature for 2 h. After the ELISA plate was washed five times with PBST, HRP (horseradish peroxidase)-labeled goat-anti-mouse IgM or IgG antibody was added and incubated at room temperature for 45 min. The ELISA plate was washed five times with PBST, and a color developing solution of sodium citrate OPD (o-phenylenediamine) was added. After 10 min of color development in the dark, sulfuric acid was added to terminate the reaction. The reading was performed with ELIASA OD490. The maximum serum dilution factor, when the ratio of light absorptions of the experimental group to the control group was >2.0, was the titer of the anti-OVA antibody in the serum.
Each test compound was formulated at a concentration of 2 mg/ml and the concentration of OVA antigen was 2 mg/ml. Each compound was mixed with OVA at 1:1. Each C57B/6 mouse in the experimental group was injected with 100 μl of the mixture (containing 50 μl of the antigen and 50 μl of the compound) by intramuscular injection at the right thigh. On Day 7 and Day 14 after immunization, blood was taken from the mice's orbit, and 100 μl was taken for each mouse. The obtained blood was allowed to stand at 4° C. overnight, and centrifuged at 6000 rpm for 8 min. The supernatant serum was removed, and the titers of anti-OVA IgM and IgG antibodies in the serum were determined.
Method: each of the test compounds (the 10 bisphosphonates as described above) was mixed with the OVE antigen at 1:1, and the concentrations of bisphosphonic acid and OVA were both 10 mg/ml. Mice of C57B/6 strain were used. The mice in the experimental group were injected with the mixture of each of the test compounds and OVA antigen through soles injection, with 20 μl for each mouse, and wherein the amounts of OVA antigen and each of the test compounds were both 100 ug. The mice in the control group were injected with a 1:1 mixture of […] and 10 μl OVA antigen through sole injection. On Day 7 and Day 14 after immunization, blood was taken from the mice's orbits, and 100 μl was taken from each mouse.
The obtained blood was left at 4° C. overnight, and centrifuged at 6000 rpm for 8 min. The supernatant serum was removed, and the titers of anti-OVA IgM and IgG antibodies in the serum were determined.
Method: TH-Z144 and TH-Z145 were prepared at the concentration of 10 mg/ml, the concentration of OVA antigen was also 10 mg/ml, and the compound and the antigen were mixed at 1:1. Mice of C57B/6 strain were used.

[2] = target: HsGGPPS (humanized geranylgeranyl pyrophosphate synthase) (Homo sapiens (Human), UniProt O95749); test: HsGGPPS enzyme inhibition test; type: biochemical
Description: The inhibitory activities of compounds TH-Z144 and TH-Z145 on GGPPS (geranylgeranyl pyrophosphate synthase) were tested by referring to the expression and purification method for HsGGPPS (humanized geranylgeranyl pyrophosphate synthase) in the reference (Szabo, C. M., et al., Inhibition of Geranylgeranyl Diphosphate Synthase by Bisphosphonates and Diphosphates: A Potential Route to New Bone Antiresorption and Antiparasitic Agents. Journal of Medicinal Chemistry, 2002. 45 (11): p. 2185-2196.) and the method for testing enzyme activity in the reference (Zhang, Y., et al., Lipophilic Bisphosphonates as Dual Farnesyl/Geranylgeranyl Diphosphate Synthase Inhibitors: An X-ray and NMR Investigation. Journal of the American Chemical Society, 2009. 131 (14): p. 5153-5162.) The data of the activity test were as follows: […]

[3] = system: PvGGPPS (geranylgeranyl pyrophosphate synthase from Plasmodium); test: In vitro PvGGPPS enzymatic activity assay; type: biochemical; details: GPP and IPP substrates
Description: PvGGPPs with 6 consecutive His at the N-terminus was induced to express in vitro, collected, and purified by Ni column. In vitro PvGGPPs enzymatic activity assay was performed in a 96-well plate at 200 μl of solution per well. The buffer of the system was 25 mM HEPES, 2.5 mM MgCl2, pH 7.4. Using GPP and IPP as reaction substrates, a 360 nm continuous spectrophotometric detection was performed in a phosphate lyase system. ORIGIN 8.0 software was used to plot and fit.

[4] = target: humanized farnesyl pyrophosphate synthase (HsFPPS) (Homo sapiens (Human), UniProt P14324); test: In vitro HsFPPS enzyme activity assay; type: biochemical
Description: The measurement method is briefly described as follows: the expression of HsFPPS with 6 consecutive His at the N-terminus was induced in vitro, collected, and purified by Ni column. An in vitro HsFPPS enzyme activity assay was performed in a 96-well plate with 200 μl of solution per well. The buffer of the system was 25 mM HEPES, 2.5 mM MgCl2, pH 7.4. Using DMAPP and IPP as reaction substrates, the change of the UV value at a wavelength of 360 nm was monitored in real time in a phosphate lyase system. The ORIGIN 8.0 software was used to plot and fit. The IC50 values for the inhibition of FPPS by the TH-Z80 series of compounds were shown in the following table, in micromoles per liter (μM).
HsFPPs with 6 consecutive His at the N-terminus was induced to express in vitro, collected, and purified by Ni column. In vitro HsFPPs enzymatic activity assay was performed in a 96-well plate at 200 μl of solution per well. The buffer of the system was 25 mM HEPES, 2.5 mM MgCl2, pH 7.4. Using DMAPP and IPP as reaction substrates, the changes of UV at 360 nm were monitored in real-time in phosphate lyase system. ORIGIN 8.0 software was used to plot and fit.

MDA-MB-231 cells = test: MDA-MB-231 proliferation MTT test; type: cell-based, human; details: 72 hours
Description: • Drug dissolution: […] The prepared bisphosphonate stock solution was diluted with DMEM complete medium. The maximum concentration was 1 mM. The dilution was performed serially in a ratio of 1:3.2 with a total of 11 concentration gradients; a. MDA-MB-231 cells were digested the day before. Centrifugation was performed at 1000 rmp for 3 min. The cells were counted. The cells were seeded into a 96-well plate at 3000 cells/well in a volume of 100 μl per well and cultured for 14-16 h. It should be noted that the cell count should be accurate, and the amount of cells seeded per well should be consistent. The cell suspension can be gently shaken in the intermittence of plating, or a row of cells were plated and the cell suspension was pipetted gently with a pipette. The speed of pipetting into the 96-well plate with a pipette should not be too fast or too slow, in order to avoid uneven distribution of cells in the plate, affecting the experiments; the wells at the fringe of the 96-well plate will evaporate slightly faster and the concentration of the solution will change slightly faster. Under normal situation, the central 60 wells should be selected for stimulation. Also, the pipetted liquid should be prevented from creating bubbles. b. After the cells had adhered, the liquid in the 96-well plate was pipetted out and discarded. […] c. 72 hours after the action of drug, the prepared MTT solution (immediately before use, a certain amount of MTT powder was weighed and dissolved in PBS at 5 mg/ml, under dark, filter with 0.22 filter membrane) was added directly to each well with 20 μl per well and continued to culture for 4 hours; d. The filter paper (which can be replaced by an absorbent paper) was laid, and the plate was inverted gently (be careful to prevent the crystal in the well from dropping). After the liquid in the wells was removed, 150 μl of DMSO was added to dissolve the crystals, and the mixture was shaken thoroughly with a shaker for a period of time just to dissolve the crystals. The absorbance (OD value) of each well was measured at 570 nm with ELIASA. The mean value of blank control was calculated as OD Blank. OD value for each well=OD measured-OD Blank. ODNT mean value was calculated. […] Mean and standard error were then calculated. The mean and standard error of each group of drug concentration (uM) and corresponding drug inhibition rate were fitted by Graph Prism software to obtain the IC50 of the drug.

[5] = system: Plasmodium falciparum 3D7; test: Test of plasmodium activity (SYBR-GREEN1); type: cell-based; details: infected erythrocytes, 72 hours; read-out: Malaria (IC50/μM)
Description: Plasmodium falciparum 3D7 was cultured with […] medium mixed with 10% human O-type blood serum and 25 mM HEPES. The cultivation process was maintained in a carbon dioxide incubator under 5% carbon dioxide. In vitro drug testing experiments were performed on a 96-well plate. The test drug was dissolved in PBS and pre-diluted with complete medium. Infected erythrocytes were cultured in triplicate for 72 hours in 3-fold serial dilutions of drug. Then an equal amount of SYBR-GREEN1 was added to each well. The detection was then performed at 485 nm for excitation light and 538 nm for emitted light. […] ORIGIN 8.0 software was used to plot and fit.

[6] = system: anti-OVA IgM and IgG antibodies; test: Combined adjuvant effect of FPPS inhibitor and TLR agonist, OVA titer; type: in vivo, mice; details: soles of right feet
Description: Two compounds, TH-Z93 and Imiquimod, were formulated at a concentration of 4 mg/ml, and OVA antigen at a concentration of 10 mg/ml. When used alone, 5 μl of TH-Z93 or imiquimod was added as an adjuvant and mixed with 10 μl of antigen and 5 μl of PBS. When two adjuvants were used in combination, each of the adjuvants were added in an amount of 5 μl and mixed with 10 μl of antigen, and the total volumes were 20 μl. The mice used are of C57B/6 strain. An equal volume of PBS without any adjuvant was used for mice in the control group. The mice was injected at the soles of the right feet. On Day 7 and Day 14 after immunization, blood was taken from the mice's orbits, and 100 μl was taken for each mouse. The obtained blood was left at 4° C. overnight, and then the serum was separated. The titers of anti-OVA IgM and IgG antibodies in the serum were determined.

humanized farnesyl pyrophosphate synthase (HsFPPS), sequence (P14324 whole entry, looked up): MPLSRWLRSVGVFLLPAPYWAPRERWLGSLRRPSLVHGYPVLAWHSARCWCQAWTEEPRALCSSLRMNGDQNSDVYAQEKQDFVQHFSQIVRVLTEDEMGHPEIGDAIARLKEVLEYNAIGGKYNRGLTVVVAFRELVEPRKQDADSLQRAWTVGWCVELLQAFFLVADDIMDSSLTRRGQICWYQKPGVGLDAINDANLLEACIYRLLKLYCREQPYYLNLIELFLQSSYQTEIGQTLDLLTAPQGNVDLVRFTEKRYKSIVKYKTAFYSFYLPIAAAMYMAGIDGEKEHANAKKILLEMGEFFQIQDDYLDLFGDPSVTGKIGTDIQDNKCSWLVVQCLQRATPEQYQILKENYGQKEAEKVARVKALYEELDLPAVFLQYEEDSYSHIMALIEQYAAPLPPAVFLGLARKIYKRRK
HsGGPPS (humanized geranylgeranyl pyrophosphate synthase), sequence (O95749 whole entry, looked up): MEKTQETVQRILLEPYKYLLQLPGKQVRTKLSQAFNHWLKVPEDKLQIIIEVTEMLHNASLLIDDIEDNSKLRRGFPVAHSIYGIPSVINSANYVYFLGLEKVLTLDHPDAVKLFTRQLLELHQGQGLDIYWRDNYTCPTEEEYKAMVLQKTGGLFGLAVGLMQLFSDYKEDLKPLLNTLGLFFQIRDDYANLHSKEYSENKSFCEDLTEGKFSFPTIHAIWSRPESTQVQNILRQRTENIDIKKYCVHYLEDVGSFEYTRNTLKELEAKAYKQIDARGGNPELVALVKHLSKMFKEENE

`CCCCCCOc1cccc(CC(P(=O)(O)O)P(=O)(O)O)c1` [TH-Z144, (2-(3-(hexyloxy)phenyl)ethane-1,1-diyl)bisphosphonic acid] was tested, and the “IgM and IgG antibody titers vs PBS control” value [1] was “significantly higher titers”, the “IC50 (inhibition of GGPPS)” value [2] was “effectively inhibit the activity of GGPPS” and the IC50 ([2]; read-out: IC50 (inhibition of GGPPS)) was 2760 nM.
`CCCCCOc1ccc2c(c1)ncn2CC(O)(P(=O)(O)O)P(=O)(O)O` [TH-Z151] was tested, and the IC50 [3] was 0.46 µM, the IC50 ([4]; Example 15 table, read-out: HsFPPS (IC50/μM)) was 0.12 µM and the IC50 ([4]; TH-Z80 series, DMAPP and IPP substrates, pH 7.4, read-out: IC50 for inhibition of FPPS) was 0.12 µM. It also gave an IC50 (MDA-MB-231 cells) of 406000 nM and an IC50 [5] of 1.25 µM.
In the case of `CC(C)Cn1cnc2c(N)nc3ccccc3c21` [imiquimod, reference compound], the “antibody titers vs PBS control, adjuvant used alone” value [6] is reported as “significant high titers”.
